According to publication PMC7231327 (2020):
Values belong to the compound of their own block, whether it stands above or below them.

What was measured:
[1] = test system: H-DNA 1 (DNA, aptamer) GCGGGCGGTTGTATAGCGGTTTTTTCTCACACGAATTCATCTGAC; assay: competitive fluorescent lateral flow strip; conditions: for Cross-reactivity: T-DNA competes, [AMP] at IC50/[M] at IC50, AMP = 100
[2] = test system: H-DNA 1' (DNA, aptamer) GCGGGCGGTTGTATAGCGGTTTTTTCTCACACGAATTCATCTGAC; assay: competitive fluorescent lateral flow strip; conditions: T-DNA competes on T line; AMP 150 and 200 ng/L; slight signal change

Compound: O=C(N[C@H](CO)[C@H](O)c1ccc([N+](=O)[O-])cc1)C(Cl)Cl
Cross-reactivity ([1]; n = 3, RSD 4.34%): 6.60%

Compound: CC1(C)S[C@@H]2[C@H](NC(=O)[C@H](N)c3ccccc3)C(=O)N2[C@H]1C(=O)O
binding ([1]; T-DNA (complementary strand) competes on T line, AMP 50-300 ng/L): yes
binding [2]: weak

Compound: CC1(C)S[C@@H]2[C@H](NC(=O)Cc3ccccc3)C(=O)N2[C@H]1C(=O)O
Cross-reactivity ([1]; n = 3, RSD 3.56%): 7.40%

Second part, the compound after the results:

Cross-reactivity ([1]; n = 3, RSD 2.34%): 0.67%
Compound: CN(C)[C@@H]1C(=O)C(C(N)=O)=C(O)[C@@]2(O)C(=O)C3=C(O)c4c(O)cccc4[C@@](C)(O)[C@H]3C[C@@H]12

Cross-reactivity ([1]; n = 3, RSD 2.76%): 0.88%
Compound: CN(C)[C@@H]1C(=O)C(C(N)=O)=C(O)[C@@]2(O)C(=O)C3=C(O)c4c(O)cccc4[C@@](C)(O)[C@H]3[C@H](O)[C@@H]12

Cross-reactivity ([1]; n = 3, RSD 3.89%): 5.53%
Compound: NC[C@H]1O[C@H](O[C@H]2[C@H](O)[C@@H](O[C@H]3O[C@H](CO)[C@@H](O)[C@H](N)[C@H]3O)[C@H](N)C[C@@H]2N)[C@H](O)[C@@H](O)[C@@H]1O
